Experiment [1] has as its target T1, KRAS (G12D) (Homo sapiens, UniProt P01116, G12D).
T1 construct: in-cell western with KRAS G12D antibody after 24 h
The experiment is described as follows: KRAS (G12D) cellular degradation assay in AsPC-1 cells. It counts as cell-based. Particulars: 24 hours, antibody fluorescence (Odyssey CLX), DC50 half-maximal degradation concentration. In a few lines: (§1)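 Read-outs were KRAS G12D immunofluorescence against β-actin after 24 h (DC50) and CellTiter Glo luminescence after 6 days (IC50). Compounds were titrated 1:3 from […] to 1.5 nM final on AsPC-1 cells at 37 °C, 5% CO2.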

The subject of experiment [2] is AsPC-1 cells. Kind of experiment: AsPC-1 cell proliferation assay (CellTiter Glo). It counts as cell-based. Particulars: 6 days. The procedure, abridged:
as §1

T1 sequence (P01116 1-188 isoform P01116-2 G12D): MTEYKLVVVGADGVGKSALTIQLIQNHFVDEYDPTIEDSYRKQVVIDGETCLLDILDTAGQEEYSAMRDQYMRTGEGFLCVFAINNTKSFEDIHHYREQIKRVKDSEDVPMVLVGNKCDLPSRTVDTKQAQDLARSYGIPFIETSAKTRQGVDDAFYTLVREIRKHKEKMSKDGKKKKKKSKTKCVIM

`CCn1nccc1-c1ccc([C@@H](NC(=O)[C@@H]2C[C@@H](O)CN2C(=O)[C@H](C(C)C)n2cc(-c3ccc(COc4c(-c5c(C)c(F)cc6[nH]ncc56)c(C5CC5)cc5c(N6CCCNCC6)nc(O[C@H]6C[C@H](OC)C6)nc45)cc3)nn2)[C@H](C)O)cc1` [Example 156, (2S,4R)-1-((2S)-2-(4-(4-(((6-cyclopropyl-4-(1,4-diazepan-1-yl)-7-(6-fluoro-5-methyl-1H-indazol-4-yl)-2-((1r,3r)-3-methoxycyclobutoxy)quinazolin-8-yl)oxy)methyl)phenyl)-1H-1,2,3-triazol-1-yl)-3-methylbutanoyl)-N-((1R,2S)-1-(4-(1-ethyl-1H-pyrazol-5-yl)phenyl)-2-hydroxypropyl)-4-hydroxypyrrolidine-2-carboxamide]: the 50% degradation concentration (DC50) in experiment [1] was less than 10 nM. In experiment [2] (Homo sapiens, ASPC1, 144 h), this compound returned a concentration for half-maximal inhibition (IC50) of less than 10 nM.
In experiment [1], `CO[C@@H](C)COc1nc(N2CCCNCC2)c2cc(C3CC3)c(-c3c(C)c(F)cc4[nH]ncc34)c(OCc3ccc(-c4cn([C@H](C(=O)N5C[C@H](O)C[C@H]5C(=O)N[C@H](c5ccc(-c6scnc6C)cc5)[C@H](C)O)C(C)C)nn4)cc3)c2n1` [Example 157, (2S,4R)-1-((2S)-2-(4-(4-(((6-cyclopropyl-4-(1,4-diazepan-1-yl)-7-(6-fluoro-5-methyl-1H-indazol-4-yl)-2-((S)-2-methoxypropoxy)quinazolin-8-yl)oxy)methyl)phenyl)-1H-1,2,3-triazol-1-yl)-3-methylbutanoyl)-4-hydroxy-N-((1R,2S)-2-hydroxy-1-(4-(4-methylthiazol-5-yl)phenyl)propyl)pyrrolidine-2-carboxamide] showed a 50% degradation concentration (DC50) of less than 10 nM. In experiment [2] (Homo sapiens, ASPC1, 144 h), this compound returned a half-inhibitory concentration (IC50) of less than 10 nM.
Turning to `CCn1nccc1-c1ccc([C@H](CO)NC(=O)[C@@H]2C[C@@H](O)CN2C(=O)[C@H](C(C)C)n2cc(-c3ccc(COc4c(-c5c(C)c(F)cc6[nH]ncc56)c(C5CC5)cc5c(N6CCC=CCC6)nc(OC[C@H](C)OC)nc45)cc3)nn2)cc1` [Example 158, (2S,4R)-1-((2S)-2-(4-(4-(((6-cyclopropyl-7-(6-fluoro-5-methyl-1H-indazol-4-yl)-2-((S)-2-methoxypropoxy)-4-(2,3,6,7-tetrahydro-1H-azepin-1-yl)quinazolin-8-yl)oxy)methyl)phenyl)-1H-1,2,3-triazol-1-yl)-3-methylbutanoyl)-N—((R)-1-(4-(1-ethyl-1H-pyrazol-5-yl)phenyl)-2-hydroxyethyl)-4-hydroxypyrrolidine-2-carboxamide], the DC50 in experiment [1] is 10 to 100 nM. Moreover, the half-inhibitory concentration (IC50) in experiment [2] (Homo sapiens, ASPC1, 144 h) lay within 10 to 100 nM.
Take `CO[C@@H](C)COc1nc(N(C)[C@H]2CCNC2)c2cc(C3CCC3)c(-c3c(C)c(F)cc4[nH]ncc34)c(OCc3ccc(-c4cn([C@H](C(=O)N5C[C@H](O)C[C@H]5C(=O)N[C@H](c5ccc(-c6scnc6C)cc5)[C@H](C)O)C(C)C)nn4)cc3)c2n1` [Example 159, (2S,4R)-1-((2S)-2-(4-(4-(((6-cyclobutyl-7-(6-fluoro-5-methyl-1H-indazol-4-yl)-2-((S)-2-methoxypropoxy)-4-(methyl((S)-pyrrolidin-3-yl)amino)quinazolin-8-yl)oxy)methyl)phenyl)-1H-1,2,3-triazol-1-yl)-3-methylbutanoyl)-4-hydroxy-N-((1R,2S)-2-hydroxy-1-(4-(4-methylthiazol-5-yl)phenyl)propyl)pyrrolidine-2-carboxamide]: the 50% degradation concentration (DC50) in experiment [1] is less than 10 nM. The same compound showed a concentration for half-maximal inhibition (IC50) in experiment [2] of less than 10 nM.
Compound `CCn1nccc1-c1ccc([C@H](CO)NC(=O)[C@@H]2C[C@@H](O)CN2C(=O)[C@H](C(C)C)n2cc(-c3ccc(COc4c(-c5c(C)c(F)cc6[nH]ncc56)c(C5CC5)cc5c(N6C[C@@H]7C[C@H]6CN7)nc(O[C@H]6C[C@H](OC)C6)nc45)cc3)nn2)c2c1CC2` [Example 160, (2S,4R)-1-((2S)-2-(4-(4-(((4-((1S,4S)-2,5-diazabicyclo[2.2.1]heptan-2-yl)-6-cyclopropyl-7-(6-fluoro-5-methyl-1H-indazol-4-yl)-2-((1r,3S)-3-methoxycyclobutoxy)quinazolin-8-yl)oxy)methyl)phenyl)-1H-1,2,3-triazol-1-yl)-3-methylbutanoyl)-N—((R)-1-(5-(1-ethyl-1H-pyrazol-5-yl)bicyclo[4.2.0]octa-1(6),2,4-trien-2-yl)-2-hydroxyethyl)-4-hydroxypyrrolidine-2-carboxamide] displayed a DC50 in experiment [1] of less than 10 nM. This compound also came in with an IC50 in experiment [2] (Homo sapiens, ASPC1, 144 h) of less than 10 nM.
In experiment [1], `CCn1nccc1-c1ccc([C@H](CO)NC(=O)[C@@H]2C[C@@H](O)CN2C(=O)[C@H](C(C)C)n2cc(-c3ccc(COc4c(-c5c(C)c(F)cc6[nH]ncc56)c(C5CC5)cc5c(N6CCOCC(C)(O)C6)nc(OC[C@H](C)OC)nc45)cc3)nn2)cc1` (stereo partly drawn) [Example 161, (2S,4R)-1-((2S)-2-(4-(4-(((6-cyclopropyl-7-(6-fluoro-5-methyl-1H-indazol-4-yl)-4-(6-hydroxy-6-methyl-1,4-oxazepan-4-yl)-2-((S)-2-methoxypropoxy)quinazolin-8-yl)oxy)methyl)phenyl)-1H-1,2,3-triazol-1-yl)-3-methylbutanoyl)-N—((R)-1-(4-(1-ethyl-1H-pyrazol-5-yl)phenyl)-2-hydroxyethyl)-4-hydroxypyrrolidine-2-carboxamide] yielded a DC50 of 10 to 100 nM. The concentration for half-maximal inhibition (IC50) in experiment [2] (Homo sapiens, ASPC1, 144 h) was less than 10 nM.
Turning to `CCn1cc2c(C#C[C@H](CO)NC(=O)[C@@H]3C[C@@H](O)CN3C(=O)[C@H](C(C)C)n3cc(-c4ccc(COc5c(-c6c(C)c(F)cc7[nH]ncc67)c(C6CC6)cc6c(N7C[C@@H]8C[C@H]7CN8)nc(OC[C@H](C)OC)nc56)cc4)nn3)cccc2n1` [Example 162, (2S,4R)-1-((2S)-2-(4-(4-(((4-((1S,4S)-2,5-diazabicyclo[2.2.1]heptan-2-yl)-6-cyclopropyl-7-(6-fluoro-5-methyl-1H-indazol-4-yl)-2-((S)-2-methoxypropoxy)quinazolin-8-yl)oxy)methyl)phenyl)-1H-1,2,3-triazol-1-yl)-3-methylbutanoyl)-N—((R)-4-(2-ethyl-2H-indazol-4-yl)-1-hydroxybut-3-yn-2-yl)-4-hydroxypyrrolidine-2-carboxamide], the DC50 in experiment [1] was less than 10 nM. In addition, in experiment [2] (Homo sapiens, ASPC1, 144 h), the concentration for half-maximal inhibition (IC50) was less than 10 nM.
As to `CCn1nccc1-c1ccc([C@@H](NC(=O)[C@@H]2C[C@@H](O)CN2C(=O)[C@H](C(C)C)n2cc(-c3ccc(COc4c(-c5c(C)c(F)cc6[nH]ncc56)c(C5CC5)cc5c(N(C)[C@H]6CCNC6)nc(OC[C@H](C)OC)nc45)cc3)nn2)[C@H](C)O)c2c1CC2` [Example 164, (2S,4R)-1-((2S)-2-(4-(4-(((6-cyclopropyl-7-(6-fluoro-5-methyl-1H-indazol-4-yl)-2-((S)-2-methoxypropoxy)-4-(methyl((S)-pyrrolidin-3-yl)amino)quinazolin-8-yl)oxy)methyl)phenyl)-1H-1,2,3-triazol-1-yl)-3-methylbutanoyl)-N-((1R,2S)-1-(5-(1-ethyl-1H-pyrazol-5-yl)bicyclo[4.2.0]octa-1(6),2,4-trien-2-yl)-2-hydroxypropyl)-4-hydroxypyrrolidine-2-carboxamide], the DC50 in experiment [1] was less than 10 nM. The half-inhibitory concentration (IC50) in experiment [2] is less than 10 nM.
Consider `CCn1nccc1-c1ccc([C@H](CO)NC(=O)[C@@H]2C[C@@H](O)CN2C(=O)[C@H](C(C)C)n2cc(-c3ccc(COc4c(-c5c(C)c(F)cc6[nH]ncc56)c(C5CC5)cc5c(N(C)[C@H]6CCNC6)nc(O[C@H]6C[C@H](OC)C6)nc45)cc3)nn2)cc1` [Example 165, (2S,4R)-1-((2S)-2-(4-(4-(((6-cyclopropyl-7-(6-fluoro-5-methyl-1H-indazol-4-yl)-2-((1r,3S)-3-methoxycyclobutoxy)-4-(methyl((S)-pyrrolidin-3-yl)amino)quinazolin-8-yl)oxy)methyl)phenyl)-1H-1,2,3-triazol-1-yl)-3-methylbutanoyl)-N—((R)-1-(4-(1-ethyl-1H-pyrazol-5-yl)phenyl)-2-hydroxyethyl)-4-hydroxypyrrolidine-2-carboxamide], for which the DC50 in experiment [1] was less than 10 nM. The 50% inhibitory concentration (IC50) in experiment [2] (Homo sapiens, ASPC1, 144 h) was less than 10 nM.
The compound `CO[C@H]1C[C@H](Oc2nc(N(C)[C@H]3CCNC3)c3cc(C4CC4)c(-c4c(C)c(F)cc5[nH]ncc45)c(OCc4ccc(-c5cn([C@H](C(=O)N6C[C@H](O)C[C@H]6C(=O)N[C@@H](CO)c6ccc(-c7scnc7C)cc6)C(C)C)nn5)cc4)c3n2)C1` [Example 166, (2S,4R)-1-((2S)-2-(4-(4-(((6-cyclopropyl-7-(6-fluoro-5-methyl-1H-indazol-4-yl)-2-((1r,3S)-3-methoxycyclobutoxy)-4-(methyl((S)-pyrrolidin-3-yl)amino)quinazolin-8-yl)oxy)methyl)phenyl)-1H-1,2,3-triazol-1-yl)-3-methylbutanoyl)-4-hydroxy-N—((R)-2-hydroxy-1-(4-(4-methylthiazol-5-yl)phenyl)ethyl)pyrrolidine-2-carboxamide] had a DC50 in experiment [1] of less than 10 nM. The same compound gave a concentration for half-maximal inhibition (IC50) in experiment [2] (Homo sapiens, ASPC1, 144 h) of less than 10 nM.
In experiment [1], `CO[C@@H](C)COc1nc(N(C)[C@H]2CCNC2)c2cc(C3CC3)c(-c3c(C)c(F)cc4[nH]ncc34)c(OCc3ccc(-c4cn([C@H](C(=O)N5C[C@H](O)C[C@H]5C(=O)N[C@H](c5ccc(-c6scnc6C)cc5)[C@H](C)O)C(C)C)nn4)cc3)c2n1` [Example 167, (2S,4R)-1-((2S)-2-(4-(4-(((6-cyclopropyl-7-(6-fluoro-5-methyl-1H-indazol-4-yl)-2-((S)-2-methoxypropoxy)-4-(methyl((S)-pyrrolidin-3-yl)amino)quinazolin-8-yl)oxy)methyl)phenyl)-1H-1,2,3-triazol-1-yl)-3-methylbutanoyl)-4-hydroxy-N-((1R,2S)-2-hydroxy-1-(4-(4-methylthiazol-5-yl)phenyl)propyl)pyrrolidine-2-carboxamide] registered a DC50 of less than 10 nM. For the same compound, the 50% inhibitory concentration (IC50) in experiment [2] was less than 10 nM.

The values are drawn from patent US20260295053A1, “COMPOUNDS FOR DEGRADATION AND INHIBITION OF KRAS (G12D) PROTEIN” (Shenzhen Ionova Life Science Co., Ltd., priority 2023, published 2026).
